Measurements published in patent publication US9504729B2, “Antiangiogenic small molecules and methods of use” (The United States of America, as represented by the …, priority 2009, dated 2016).

Tested on: angiogenesis genes in dermal microvascular endothelial cells
Experiment: Real time RT-PCR of angiogenesis gene expression during endothelial tube formation
Type: cell-based
Conditions: 1 μM SM, 24 hours
Experimental: For gene expression studies, three independent experiments were run for each SM tested. 90.000 cells/well (6 wells/treatment) of dermal microvascular endothelial cells (Lonza, Walkersville, Md.) were seeded on polymerized GELTREX™ gel matrix (Invitrogen, Carlsbad, Calif.) in 24 well plates. Wells were immediately treated with the same volume of 1 μM SM or PBS. After 24 hours incubation at 37° C. and 5% CO2, cells were extracted using Cell Recovery Solution (BD Biosciences, San Jose, Calif., Cat. #354253). Total RNA was extracted with the RNeasy Mini Kit (Qiagen, Valencia, Calif., Cat. #74104), and retrotranscribed using […]® First-Strand reverse transcriptase (Invitrogen, Carlsbad, Calif., Cat. #11904-018). The real time PCR reactions were performed in an Opticon 2 cycler (MJ Research, Waltham, Mass.). Amplification was performed in a final volume of 25 μl, containing 2 μl cDNA (1:10 dilution from the reversed transcribed reaction) and 2 μl of primer mixture (10 μM each of forward and reverse primers). Samples were amplified as follows: after initial denaturation at 95 C for 2 minutes, reactions were run for 46 cycles at 95° C. for 30 seconds, 60° C. for 30 seconds, and 72° C. for 45 seconds. Fluorescence was measured in every cycle and a melting curve was run after the PCR by increasing temperature from 50 to 96° C. (in 0.5° C. increments). A defined single peak was obtained for all amplicons, thus confirming the specificity of the amplification.
The genes that were monitored were selected based on their relevance to the angiogenesis process. All experiments were done in triplicate. The results are shown in the volcano plots of FIG. 17. Log 2 fold-change is presented in the X-axis and log 10 P value in the Y-axis.

CCC(=O)OCN1C(=O)C=CC1=O [compound 19630]
Log2 fold-change of gene expression: Kifc1: 3.4 | Log2 fold-change of gene expression: LAMAS5: −0.8 | Log2 fold-change of gene expression: LECT1: −0.4 | Log2 fold-change of gene expression: LEP: −4.5 | Log2 fold-change of gene expression: Lasts2: −0.1 | Log2 fold-change of gene expression: Lrrk1: −2.9 | Log2 fold-change of gene expression: MDK: −1.1 | Log2 fold-change of gene expression: MMP2: 0.5 | Log2 fold-change of gene expression: MMP9: 0.3 | Log2 fold-change of gene expression: MMP11: 0.8 | Log2 fold-change of gene expression: MRC2: 1.6 | Log2 fold-change of gene expression: Mmm2: −2.4 | Log2 fold-change of gene expression: Myo1b: −2.3 | Log2 fold-change of gene expression: NID1: −2.6 | Log2 fold-change of gene expression: NM023516: 0.5 | Log2 fold-change of gene expression: NRP1: −0.5 | Log2 fold-change of gene expression: NRP2: −2.2 | Log2 fold-change of gene expression: Notch4: −1.8 | Log2 fold-change of gene expression: Npr3: 8.3 | Log2 fold-change of gene expression: PALD: −1.1 | Log2 fold-change of gene expression: PDCD2: 0.5 | Log2 fold-change of gene expression: PDGFA: −0.7 | Log2 fold-change of gene expression: PECAM1: −2.6 | Log2 fold-change of gene expression: PGF: −2.4 | Log2 fold-change of gene expression: PLAU: 0.1 | Log2 fold-change of gene expression: PLG: −2.7 | Log2 fold-change of gene expression: PNMT: 0.7 | Log2 fold-change of gene expression: PROK2: −1.3 | Log2 fold-change of gene expression: PTGS1: −2.4 | Log2 fold-change of gene expression: PTPRCAP: 0.4 | Log2 fold-change of gene expression: Pltp: 0.9 | Log2 fold-change of gene expression: Ptprb: −1.6 | Log2 fold-change of gene expression: Ptprm: −1.2 | Log2 fold-change of gene expression: RAMP2: −4.8 | Log2 fold-change of gene expression: RASD2: 0.9 | Log2 fold-change of gene expression: Rasip1: 3.1 | Log2 fold-change of gene expression: S1PR1: −2.6 | Log2 fold-change of gene expression: SERPINF1: −0.8 | Log2 fold-change of gene expression: SPHK1: −0.5 | Log2 fold-change of gene expression: STAB1: −1.0 | Log2 fold-change of gene expression: Sdc4: 2.2 | Log2 fold-change of gene expression: Sdpr: −0.1 | Log2 fold-change of gene expression: Slc43a3: −0.8 | Log2 fold-change of gene expression: Slco2a1: −2.5 | Log2 fold-change of gene expression: TEK: −0.4 | Log2 fold-change of gene expression: TGFA: 1.1 | Log2 fold-change of gene expression: TGFB1: −1.3 | Log2 fold-change of gene expression: TGFB2: −0.5 | Log2 fold-change of gene expression: TGFBR1: −0.1 | Log2 fold-change of gene expression: THBS1: 0.5 | Log2 fold-change of gene expression: THBS2: −0.6 | Log2 fold-change of gene expression: THY1: −11.3 | Log2 fold-change of gene expression: TIMP1: −0.8 | Log2 fold-change of gene expression: TIMP2: −0.9 | Log2 fold-change of gene expression: TIMP3: 0.7 | Log2 fold-change of gene expression: TNF: −0.6 | Log2 fold-change of gene expression: TNS1: 0.6 | Log2 fold-change of gene expression: TNS3: −1.8 | Log2 fold-change of gene expression: TRA2B: 1.5 | Log2 fold-change of gene expression: TYMP: 0.3 | Log2 fold-change of gene expression: VEGFA: 4.2 | Log2 fold-change of gene expression: VEGFC: 0.1 | Log2 fold-change of gene expression: VGLL4: −1.3 | Log2 fold-change of gene expression: Vwf: −1.8 | Log2 fold-change of gene expression: copa: 0.4 | Log2 fold-change of gene expression: itbp4: −0.8 | Log2 fold-change of gene expression: ralb: 0.1 | Log2 fold-change of gene expression: stard9: −0.7 | Log2 fold-change of gene expression: B2M (1st listing (r49)): 0.0 | Log2 fold-change of gene expression: HPRT1 (1st listing (r50)): 0.8 | Log2 fold-change of gene expression: RPL13A (1st listing (r51)): −0.2 | Log2 fold-change of gene expression: GADPH (1st listing (r52)): 0.1 | Log2 fold-change of gene expression: ACTB (1st listing (r53)): 0.1 | Log2 fold-change of gene expression: PLXDC1 (1st listing (r74)): −4.0 | Log2 fold-change of gene expression: TNFAIP2 (1st listing (r91)): 0.2 | Log2 fold-change of gene expression: Robo4 (1st listing (r95)): 0.1 | Log2 fold-change of gene expression: 151516 (1st listing (r134)): 1.2 | Log2 fold-change of gene expression: TNFAIP2 (2nd listing (r92)): −0.4 | Log2 fold-change of gene expression: B2M (2nd listing (r97)): −0.1 | Log2 fold-change of gene expression: HPRT1 (2nd listing (r98)): 0.9 | Log2 fold-change of gene expression: RPL13A (2nd listing (r99)): 0.3 | Log2 fold-change of gene expression: GADPH (2nd listing (r100)): −0.3 | Log2 fold-change of gene expression: ACTB (2nd listing (r101)): −0.3 | Log2 fold-change of gene expression: PLXDC1 (2nd listing (r104)): −5.7 | Log2 fold-change of gene expression: 151516 (2nd listing (r139)): 0.9 | Log2 fold-change of gene expression: Robo4 (2nd listing (r188)): 0.3 | Log2 fold-change of gene expression: B2M (3rd listing (r145)): −1.4 | Log2 fold-change of gene expression: HPRT1 (3rd listing (r146)): 0.2 | Log2 fold-change of gene expression: RPL13A (3rd listing (r147)): 1.0 | Log2 fold-change of gene expression: GADPH (3rd listing (r148)): 0.1 | Log2 fold-change of gene expression: ACTB (3rd listing (r149)): −0.9 | Log2 fold-change of gene expression: B2M (4th listing (r193)): −0.9 | Log2 fold-change of gene expression: HPRT1 (4th listing (r194)): 2.0 | Log2 fold-change of gene expression: RPL13A (4th listing (r195)): 0.4 | Log2 fold-change of gene expression: GADPH (4th listing (r196)): −1.6 | Log2 fold-change of gene expression: ACTB (4th listing (r197)): −1.6
